Results on 1 molecule are retold here after publication PMC10018336 (Nucleic Acids Research, 2023).

Broadly, the Kd is the constant that tells how readily two partners part at equilibrium.

Common to all, as to assay: microscale thermophoresis, RED-NHS labelled protein
What all share (format): binding
Background: In MST a laser heats a spot of the sample, and binding alters the fluorescence response.

Test [1] deals with T1, Sso2081 (Crn1) (Saccharolobus solfataricus, UniProt Q7LYJ6, T10A).
T1 construct: full length aa 1-178; recombinant in E. coli Rosetta (DE3); N-terminal His6 tag cut with PreScission protease; homodimer
T1 sequence (Q7LYJ6 1-178 T10A): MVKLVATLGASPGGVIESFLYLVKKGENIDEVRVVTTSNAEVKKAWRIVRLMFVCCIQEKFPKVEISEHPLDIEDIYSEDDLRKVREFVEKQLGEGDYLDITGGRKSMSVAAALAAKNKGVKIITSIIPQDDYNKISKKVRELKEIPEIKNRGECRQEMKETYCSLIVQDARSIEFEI

Test [2] has as its target T2, Sso2081 (Crn1) (Saccharolobus solfataricus, UniProt Q7LYJ6, E17A).
T2 construct: full length aa 1-178; recombinant in E. coli Rosetta (DE3); N-terminal His6 tag cut with PreScission protease; homodimer
T2 sequence (Q7LYJ6 1-178 E17A): T1 sequence (Q7LYJ6 1-178 T10A) with A10T, E17A

The target in test [3] is T3, Sso2081 (Crn1) (Saccharolobus solfataricus, UniProt Q7LYJ6, D75A).
T3 construct: full length aa 1-178; recombinant in E. coli Rosetta (DE3); N-terminal His6 tag cut with PreScission protease; homodimer
T3 sequence (Q7LYJ6 1-178 D75A): T1 sequence (Q7LYJ6 1-178 T10A) with A10T, D75A

For test [4], the target named is T4, Sso2081 (Crn1) (Saccharolobus solfataricus, UniProt Q7LYJ6, S11A).
T4 construct: full length aa 1-178; recombinant in E. coli Rosetta (DE3); N-terminal His6 tag cut with PreScission protease; homodimer
T4 sequence (Q7LYJ6 1-178 S11A): T1 sequence (Q7LYJ6 1-178 T10A) with A10T, S11A

Test [5] deals with T5, Sso2081 (Crn1) (Saccharolobus solfataricus, UniProt Q7LYJ6, K106A).
T5 construct: full length aa 1-178; recombinant in E. coli Rosetta (DE3); N-terminal His6 tag cut with PreScission protease; homodimer
T5 sequence (Q7LYJ6 1-178 K106A): T1 sequence (Q7LYJ6 1-178 T10A) with A10T, K106A

SMILES strings stand for the structures. Changes are numbered by the printed parent chain.

Turning to `Nc1ncnc2c1ncn2[C@@H]1O[C@@H]2COP(=O)(O)O[C@H]3[C@@H](O)[C@H](n4cnc5c(N)ncnc54)O[C@@H]3COP(=O)(O)O[C@H]3[C@@H](O)[C@H](n4cnc5c(N)ncnc54)O[C@@H]3COP(=O)(O)O[C@H]3[C@@H](O)[C@H](n4cnc5c(N)ncnc54)O[C@@H]3COP(=O)(O)O[C@H]2[C@H]1O` [cA4], the Kd was found to be 0.0173 ± 0.0092 µM in test [1]; 0.017 ± 0.0012 µM in test [2]; 0.0755 ± 0.0341 µM in test [3]; 0.0432 ± 0.0255 µM in test [4]; 0.0228 ± 0.0101 µM in test [5].
